Measurements taken from patent US10894770B2, “Fullerene derivative and n-type semiconductor material” (DAIKIN INDUSTRIES, LTD., priority 2015, dated 2021).

Tests used:
[1] = LUMO level estimated from cyclic voltammetry (CV); assay type: physicochemical; settings: for E1/2^1, half-wave potential of the first reduction wave: CV, 3-electrode system, chlorobenzene:acetonitrile=5:1, n-Bu4NPF6 0.1 mol/L; for LUMO: ELUMO=−(E1/2^1+4.8) eV, from CV
Procedure: The LUMO level can be measured by a method according to Karakawa et al., Journal of Materials Chemistry A, 2014, vol. 2, p. 20889.
The LUMO level of the fullerene derivatives obtained in Synthesis Examples and the control compounds was estimated from the measured values in cyclic voltammetry (CV).
The measurement was performed in accordance with the experiment section in M. Karakawa et al., Journal of Material Chemistry A, 2014, vol. 2, p. 20889. • Measurement Device: BAS CV-50W Voltammetric Analyzer • Measurement Solvent: Chlorobenzene:Acetonitrile=5:1 • Supporting Electrolyte: n-Bu4NPF6 concentration 0.1 mol/L
The LUMO level is calculated from the half-wave potential E1/2^1 (Fc/Fc^+ benchmark) of the first reduction wave measured by CV (3-electrode system) using the following equation. ELUMO=−(E1/2^1+4.8)ev

[2] = Solubility measured with a toluene solution (absorbance of the supernatant of a supersaturated solution); assay type: physicochemical; settings: room temperature, from absorbance and molar extinction coefficient
Procedure: The solubility in toluene at room temperature can be determined from the absorbance in accordance with the Beer-Lambert law. First, a molar extinction coefficient is determined using a fullerene derivative toluene solution of a known concentration. A predetermined amount of the supernatant of a supersaturated fullerene derivative toluene solution is weighed, and the absorbance of this solution is measured. The concentration is calculated from the following equation. C=A/εd wherein C is a concentration; A is an absorbance; ε is a molar extinction coefficient; and d is a cell length for absorbance measurement (1 cm)
The solubility of each fullerene derivative was calculated from the absorbance measured with an ultraviolet-visible absorptiometer.
In advance, the absorbance of the fullerene derivatives of a predetermined concentration was measured to determine the molar extinction coefficient of each compound.
A supersaturated toluene solution of a fullerene derivative was prepared. A predetermined amount of the supernatant of this solution was taken out, and its absorbance was measured.
From the measured absorbance value and the molar extinction coefficient, the concentration of the supernatant of the supersaturated toluene solution was determined.

SMILES	E1/2^1, half-wave potential of the first reduction wave [1] [V vs Fc/Fc^++]	LUMO [1] [eV]	Solubility in Toluene [2] [%]
CCCCCCC1N(c2ccccc2)C(c2ccccc2)C23c4c5c6c7c8c9c(c%10c%11c2c2c%12c4c4c%13c5c5c7c7c8c8c%14c9c%10c9c%10c%11c2c2c%11c%12c4c4c%12c%13c5c5c7c7c8c8c%14c9c9c%10c2c2c%11c4c4c%12c5c7c5c8c9c2c45)C613 (stereo not drawn) [Compound 1]	−1.16	−3.64	0.5
CCCCC(CC)CC1N(c2ccccc2)C(c2ccccc2)C23c4c5c6c7c8c9c(c%10c%11c2c2c%12c4c4c%13c5c5c7c7c8c8c%14c9c%10c9c%10c%11c2c2c%11c%12c4c4c%12c%13c5c5c7c7c8c8c%14c9c9c%10c2c2c%11c4c4c%12c5c7c5c8c9c2c45)C613 (stereo not drawn) [Compound 2]	−1.17	−3.63	1.0
COCCOCCOCC1N(c2ccccc2)C(c2ccccc2)C23c4c5c6c7c8c9c(c%10c%11c2c2c%12c4c4c%13c5c5c7c7c8c8c%14c9c%10c9c%10c%11c2c2c%11c%12c4c4c%12c%13c5c5c7c7c8c8c%14c9c9c%10c2c2c%11c4c4c%12c5c7c5c8c9c2c45)C613 (stereo not drawn) [Compound 3]	−1.17	−3.63	0.5
CCCCOCC1N(c2ccccc2)C(c2ccccc2)C23c4c5c6c7c8c9c(c%10c%11c2c2c%12c4c4c%13c5c5c7c7c8c8c%14c9c%10c9c%10c%11c2c2c%11c%12c4c4c%12c%13c5c5c7c7c8c8c%14c9c9c%10c2c2c%11c4c4c%12c5c7c5c8c9c2c45)C613 (stereo not drawn) [Compound 4]	−1.17	−3.63	0.5
CCCCCCC1N(c2ccccc2)C(CC(CC)CCCC)C23c4c5c6c7c8c9c(c%10c%11c2c2c%12c4c4c%13c5c5c7c7c8c8c%14c9c%10c9c%10c%11c2c2c%11c%12c4c4c%12c%13c5c5c7c7c8c8c%14c9c9c%10c2c2c%11c4c4c%12c5c7c5c8c9c2c45)C613 (stereo not drawn) [Compound 8]	–	–	7.0
C1=CC2=c3ccc4c5ccc6c7ccc8c9ccc%10c%11c%12c%13c%14c(c3c4c3c5c6c4c7c8c(c%119)c%13c4c%143)C23C(c2ccccc2)N(c2ccccc2)CC%123C=%101 (stereo not drawn) [Control Compound 1, reference compound]	−1.13	−3.67	0.3
CCCCCCC1N(c2ccccc2)CC23C4=c5ccc6c7ccc8c9ccc%10c%11ccc%12c%13c(c%14c%15c2c5c6c2c7c8c5c9c%10c(c%13%11)c%14c5c%152)C13C=%12C=C4 (stereo not drawn) [Control Compound 2, reference compound]	−1.14	−3.66	1.8
COC(=O)CCCC1(c2ccccc2)C23c4c5c6c7c8c9c(c%10c%11c2c2c%12c4c4c%13c5c5c7c7c8c8c%14c9c%10c9c%10c%11c2c2c%11c%12c4c4c%12c%13c5c5c7c7c8c8c%14c9c9c%10c2c2c%11c4c4c%12c5c7c5c8c9c2c45)C613 (stereo not drawn) [[60]PCBM, [6,6]-phenyl-C61-butyric acid methyl ester, reference compound]	−1.13	−3.67	–
